Usually inhibition stands for the drop in the measured response relative to a control, in per cent.

Square brackets hold non-standard residues; d marks the D form. Peptide text beside a SMILES is read from it. Orn = NCCC[C@H](N)C(=O)O

This experiment addresses Programmed cell death protein 1/Programmed cell death 1 ligand 1 (Homo sapiens) (UniProt Q15116+Q9NZQ7). Nature of the experiment: Inhibition of PD1-Tag2/PD-L1-Tag1 (unknown origin) protein-protein interaction at 20 uM preincubated for 15 mins followed by addition of anti-Tag1-Eu3+ and anti-Tag2-XL665 measured after 3 hrs by HTRF assay relative to control. In kind it is protein-complex assay. The following applies: time 195.0 min.
As to `CC(C)C[C@@H]1NC(=O)[C@H](CCCNC(=N)N)NC(=O)[C@H](C(C)C)NC(=O)[C@@H]2CCCN2C(=O)[C@@H](Cc2ccccc2)NC(=O)[C@H](C)NC(=O)[C@H](CC(C)C)NC(=O)[C@H](C(C)C)NC(=O)[C@@H]2CCCN2C(=O)[C@@H](Cc2ccccc2)NC1=O` (cyclo(A[dF]PVRL[dF]PVL)), the inhibition worked out at 4.03%.

Take `CC(C)C[C@@H]1NC(=O)[C@H](CCCNC(=N)N)NC(=O)[C@H](C(C)C)NC(=O)[C@@H]2CCCN2C(=O)[C@@H](Cc2ccccc2)NC(=O)[C@H](C)NC(=O)[C@H](CCCNC(=N)N)NC(=O)[C@H](C(C)C)NC(=O)[C@@H]2CCCN2C(=O)[C@@H](Cc2ccccc2)NC1=O` (cyclo(A[dF]PVRL[dF]PVR)): the inhibition was 21%.

Regarding `CC(NCCCC[C@@H]1NC(=O)[C@@H](Cc2ccccc2)NC(=O)[C@H](CC(C)C)N(C)C(=O)[C@H](CC(=O)O)NC(=O)[C@H]([C@@H](C)O)NC(=O)[C@@H]2CCCN2C(=O)[C@@H](Cc2c[nH]c3ccccc23)NC(=O)[C@H](CC(C)C)NC(=O)[C@H](CCCNC(=N)N)NC(=O)[C@H](C(C)C)NC1=O)=C1C(=O)CC(C)(C)CC1=O`, the inhibition amounted to 19.5%.

On to `CC(C)C[C@@H]1NC(=O)[C@H](CC(=O)O)NC(=O)[C@H]([C@@H](C)O)NC(=O)[C@@H]2CCCN2C(=O)[C@@H](Cc2ccccc2)NC(=O)[C@H](CC(C)C)NC(=O)[C@H](CC(=O)O)NC(=O)[C@H](C(C)C)NC(=O)[C@@H]2CCCN2C(=O)[C@@H](Cc2ccccc2)NC1=O`, for which the inhibition is -6.65%.

As to `CC(C)C[C@@H]1NC(=O)[C@H](CC(=O)O)NC(=O)[C@H]([C@@H](C)O)NC(=O)[C@@H]2CCCN2C(=O)[C@@H](Cc2c[nH]c3ccccc23)NC(=O)[C@H](CC(C)C)NC(=O)[C@H](CCCNC(=N)N)NC(=O)[C@H](C(C)C)NC(=O)[C@@H]2CCCN2C(=O)[C@@H](Cc2ccccc2)NC1=O` (cyclo(DL[dF]PVRL[dW]PT)), the inhibition turned out to be 43.4%.

In the case of `CCCC[C@@H]1NC(=O)[C@H](CC(=O)O)NC(=O)[C@H]([C@@H](C)O)NC(=O)[C@@H]2CCCN2C(=O)[C@@H](Cc2c[nH]c3ccccc23)NC(=O)[C@H](CC(C)C)NC(=O)[C@H](CCCNC(=N)N)NC(=O)[C@H](C(C)C)NC(=O)[C@H](CCCCNC(C)=C2C(=O)CC(C)(C)CC2=O)NC(=O)[C@@H](Cc2ccccc2)NC1=O`, the inhibition is -2.81%.

With `CC(C)C[C@@H]1NC(=O)[C@H](CCCNC(=N)N)NC(=O)[C@H](C(C)C)NC(=O)[C@@H]2CCCN2C(=O)[C@@H](Cc2ccccc2)NC(=O)[C@H](CC(C)C)NC(=O)[C@H](CCCNC(=N)N)NC(=O)[C@H](C)NC(=O)[C@@H]2CCCN2C(=O)[C@@H](Cc2ccccc2)NC1=O` (cyclo(ARL[dF]PVRL[dF]P)), the inhibition turned out to be 22.4%.

Turning to `CC(NCCCC[C@@H]1NC(=O)[C@@H]2CCCN2C(=O)[C@@H](Cc2ccccc2)NC(=O)[C@H](CC(C)C)NC(=O)[C@H](CC(=O)O)NC(=O)[C@H]([C@@H](C)O)NC(=O)[C@@H]2CCCN2C(=O)[C@@H](Cc2c[nH]c3ccccc23)NC(=O)[C@H](CC(C)C)NC(=O)[C@H](CCCNC(=N)N)NC1=O)=C1C(=O)CC(C)(C)CC1=O`, the inhibition was 13.1%.

With `CC(C)C[C@@H]1NC(=O)[C@H](CCCNC(=N)N)NC(=O)[C@H](C(C)C)NC(=O)[C@@H]2CCCN2C(=O)[C@@H](Cc2ccccc2)NC(=O)[C@H](CC(C)C)NC(=O)[C@H](CC(=O)O)NC(=O)[C@H](CCC(=O)O)NC(=O)[C@@H]2CCCN2C(=O)[C@@H](Cc2ccccc2)NC1=O`, the inhibition came to 1.14%.

As for `CC(C)C[C@@H]1NC(=O)[C@H](COP(=O)(O)O)NC(=O)[C@H]([C@@H](C)O)NC(=O)[C@@H]2CCCN2C(=O)[C@@H](Cc2ccccc2)NC(=O)[C@H](CC(C)C)NC(=O)[C@H](CCCNC(=N)N)NC(=O)[C@H](C(C)C)NC(=O)[C@@H]2CCCN2C(=O)[C@@H](Cc2ccccc2)NC1=O`, the inhibition is 26%.

As for `CC(C)C[C@@H]1NC(=O)[C@H](CCCNC(=N)N)NC(=O)[C@H](C(C)C)NC(=O)[C@@H]2CCCN2C(=O)[C@@H](Cc2ccccc2)NC(=O)[C@H](CC(C)C)NC(=O)[C@H](CCCNC(=N)N)NC(=O)[C@H](C(C)C)NC(=O)[C@@H]2CCCN2C(=O)[C@@H](Cc2ccccc2)NC1=O` (cyclo(L[dF]PVRL[dF]PVR)), the inhibition was -5.54%.

Turning to `CC(C)C[C@@H]1NC(=O)[C@H](CCCNC(=N)N)NC(=O)[C@H](C(C)C)NC(=O)[C@@H]2CCCN2C(=O)[C@@H](Cc2ccccc2)NC(=O)[C@H](CC(=O)O)NC(=O)[C@H](CC(C)C)NC(=O)[C@H]([C@@H](C)O)NC(=O)[C@@H]2CCCN2C(=O)[C@@H](Cc2ccccc2)NC1=O` (cyclo(D[dF]PVRL[dF]PTL)), the inhibition was -5.92%.

With `CC(C)C[C@@H]1NC(=O)[C@H](CCC(=O)O)NC(=O)[C@H]([C@@H](C)O)NC(=O)[C@@H]2CCCN2C(=O)[C@@H](Cc2ccccc2)NC(=O)[C@H](CC(C)C)NC(=O)[C@H](CCCNC(=N)N)NC(=O)C(C(C)C)NC(=O)[C@@H]2CCCN2C(=O)[C@@H](Cc2ccccc2)NC1=O` (some centres not stated), the inhibition amounted to 20.6%.

In the case of `CC(C)C[C@@H]1NC(=O)[C@H](CCCNC(=N)N)NC(=O)[C@H](C(C)C)NC(=O)[C@@H]2CCCN2C(=O)[C@@H](Cc2ccccc2)NC(=O)[C@H](C)NC(=O)[C@H](C)NC(=O)[C@H](C(C)C)NC(=O)[C@@H]2CCCN2C(=O)[C@@H](Cc2ccccc2)NC1=O` (cyclo(AA[dF]PVRL[dF]PV)), the inhibition worked out at 16.7%.

As for `CC(C)C[C@@H]1NC(=O)[C@H](CCCNC(=N)N)NC(=O)[C@H](C(C)C)NC(=O)[C@@H]2CCCN2C(=O)[C@@H](Cc2ccccc2)NC(=O)[C@H](CC(C)C)NC(=O)[C@H](CCCNC(=N)N)NC(=O)[C@H](C(C)C)NC(=O)[C@H](C)NC(=O)[C@@H](Cc2ccccc2)NC1=O` (cyclo(L[dF]AVRL[dF]PVR)), the inhibition was found to be 27.2%.

As to `CC(C)C[C@@H]1NC(=O)[C@H](CC(N)=O)NC(=O)[C@H]([C@@H](C)O)NC(=O)[C@@H]2CCCN2C(=O)[C@@H](Cc2ccccc2)NC(=O)[C@H](CC(C)C)NC(=O)[C@H](CCCNC(=N)N)NC(=O)[C@H](C(C)C)NC(=O)[C@@H]2CCCN2C(=O)[C@@H](Cc2ccccc2)NC1=O` (cyclo(L[dF]PTNL[dF]PVR)), the inhibition came out at 17%.

Turning to `CC(C)C[C@@H]1NC(=O)[C@H](CC(=O)O)NC(=O)[C@H](C(C)C)NC(=O)[C@@H]2CCCN2C(=O)[C@@H](Cc2ccccc2)NC(=O)[C@H](C)NC(=O)[C@H](CCCNC(=N)N)NC(=O)[C@H](C)NC(=O)[C@@H]2CCCN2C(=O)[C@@H](Cc2ccccc2)NC1=O` (cyclo(ARA[dF]PVDL[dF]P)), the inhibition was determined as 33.7%.

Regarding `CC(NCCCC[C@@H]1NC(=O)[C@@H](Cc2ccccc2)NC(=O)[C@H](CC(C)C)NC(=O)[C@H](CC(=O)O)NC(=O)[C@H]([C@@H](C)O)N(C)C(=O)[C@@H]2CCCN2C(=O)[C@@H](Cc2c[nH]c3ccccc23)NC(=O)[C@H](CC(C)C)NC(=O)[C@H](CCCNC(=N)N)NC(=O)[C@H](C(C)C)NC1=O)=C1C(=O)CC(C)(C)CC1=O`, the inhibition amounted to 32.3%.

For `CC(C)C[C@@H]1NC(=O)[C@H](CCCNC(=N)N)NC(=O)[C@H](C)NC(=O)[C@@H]2CCCN2C(=O)[C@@H](Cc2ccccc2)NC(=O)[C@H](C)NC(=O)[C@H](CCCNC(=N)N)NC(=O)[C@H](C(C)C)NC(=O)[C@@H]2CCCN2C(=O)[C@@H](Cc2ccccc2)NC1=O` (cyclo(ARL[dF]PVRA[dF]P)), the inhibition is 6.3%.

`CC(C)C[C@@H]1NC(=O)[C@H](CC(=O)O)NC(=O)[C@H](CCCNC(=N)N)NC(=O)[C@H](C(C)C)NC(=O)[C@@H]2CCCN2C(=O)[C@@H](Cc2ccccc2)NC(=O)[C@H](CC(C)C)NC(=O)[C@H]([C@@H](C)O)NC(=O)[C@@H]2CCCN2C(=O)[C@@H](Cc2ccccc2)NC1=O` (cyclo(DL[dF]PTL[dF]PVR)): the inhibition is -7.34%.

Consider `CC(C)C[C@@H]1NC(=O)[C@H](CCCNC(=N)N)NC(=O)[C@H](C(C)C)NC(=O)[C@@H]2CCCN2C(=O)[C@@H](Cc2ccccc2)NC(=O)[C@H](CC(C)C)NC(=O)[C@H](CCCNC(=N)N)NC(=O)[C@H](C(C)C)NC(=O)[C@@H]2CCCN2C(=O)[C@@H](C)NC1=O` (cyclo(L[dA]PVRL[dF]PVR)), for which the inhibition was determined as 9.49%.

Consider `CC(NCCCC[C@@H]1NC(=O)[C@@H](Cc2ccccc2)NC(=O)[C@H](CC(C)C)NC(=O)[C@H](CC(=O)O)NC(=O)[C@H]([C@@H](C)O)NC(=O)[C@@H]2CCCN2C(=O)[C@@H](Cc2c[nH]c3ccccc23)NC(=O)[C@H](CC(C)C)N(C)C(=O)[C@H](CCCNC(=N)N)NC(=O)[C@H](C(C)C)NC1=O)=C1C(=O)CC(C)(C)CC1=O`, for which the inhibition was 16.1%.

For `CC(C)C[C@@H]1NC(=O)[C@H](CCCNC(=N)N)NC(=O)[C@H](C(C)C)NC(=O)[C@@H]2CCCN2C(=O)[C@@H](Cc2ccccc2)NC(=O)[C@H](C)NC(=O)[C@H](CC(=O)O)NC(=O)[C@H](C(C)C)NC(=O)[C@@H]2CCCN2C(=O)[C@@H](Cc2ccccc2)NC1=O` (cyclo(A[dF]PVRL[dF]PVD)), the inhibition stood at 21.7%.

With `CC(C)C[C@@H]1NC(=O)[C@H](CCCN)NC(=O)[C@H](C(C)C)NC(=O)[C@@H]2CCCN2C(=O)[C@@H](Cc2ccccc2)NC(=O)[C@H](CC(C)C)NC(=O)[C@H](CCCN)NC(=O)[C@H](C(C)C)NC(=O)[C@@H]2CCCN2C(=O)[C@@H](Cc2ccccc2)NC1=O` (cyclo(V[Orn]L[dF]PV[Orn]L[dF]P)), the inhibition was 6.86%.

For `CC(NCCCC[C@@H]1NC(=O)[C@@H](Cc2ccccc2)NC(=O)[C@H](CC(C)C)NC(=O)[C@H](CC(=O)O)NC(=O)[C@H]([C@@H](C)O)NC(=O)[C@@H]2CCCN2C(=O)[C@@H](Cc2c[nH]c3ccccc23)NC(=O)[C@H](CC(C)C)NC(=O)[C@H](CCCNC(=N)N)NC(=O)[C@H](C(C)C)N(C)C1=O)=C1C(=O)CC(C)(C)CC1=O`, the inhibition is 29.1%.

Consider `CC(C)C[C@@H]1NC(=O)[C@H](CCCNC(=N)N)NC(=O)[C@H](C(C)C)NC(=O)[C@@H]2CCCN2C(=O)[C@@H](Cc2ccccc2)NC(=O)[C@H](CC(C)C)NC(=O)[C@H]([C@@H](C)O)NC(=O)[C@H](CC(=O)O)NC(=O)[C@@H]2CCCN2C(=O)[C@@H](Cc2ccccc2)NC1=O` (cyclo(DTL[dF]PVRL[dF]P)), for which the inhibition is 23.9%.

With `CC(C)C[C@@H]1NC(=O)[C@H](CCCNC(=N)N)NC(=O)[C@H](C)NC(=O)[C@@H]2CCCN2C(=O)[C@@H](Cc2ccccc2)NC(=O)[C@H](C)NC(=O)[C@H](CCCNC(=N)N)NC(=O)[C@H](C)NC(=O)[C@@H]2CCCN2C(=O)[C@@H](Cc2ccccc2)NC1=O` (cyclo(ARA[dF]PARL[dF]P)), the inhibition is 0.7%.

The values above are taken from ChEMBL document CHEMBL4665770, “Design and Discovery of Natural Cyclopeptide Skeleton Based Programmed Death Ligand 1 Inhibitor as Immune Modulator for Cancer Therapy” (J Med Chem, 2020).
